Each structure is given as a SMILES string. Where only a bound is given, the exact number is not on record here.

The target of the assay is T1, MerTK (Homo sapiens, UniProt Q12866).
T1 construct: endogenous in cells; host or cells: Jurkat cells
T1 sequence (Q12866 21-999): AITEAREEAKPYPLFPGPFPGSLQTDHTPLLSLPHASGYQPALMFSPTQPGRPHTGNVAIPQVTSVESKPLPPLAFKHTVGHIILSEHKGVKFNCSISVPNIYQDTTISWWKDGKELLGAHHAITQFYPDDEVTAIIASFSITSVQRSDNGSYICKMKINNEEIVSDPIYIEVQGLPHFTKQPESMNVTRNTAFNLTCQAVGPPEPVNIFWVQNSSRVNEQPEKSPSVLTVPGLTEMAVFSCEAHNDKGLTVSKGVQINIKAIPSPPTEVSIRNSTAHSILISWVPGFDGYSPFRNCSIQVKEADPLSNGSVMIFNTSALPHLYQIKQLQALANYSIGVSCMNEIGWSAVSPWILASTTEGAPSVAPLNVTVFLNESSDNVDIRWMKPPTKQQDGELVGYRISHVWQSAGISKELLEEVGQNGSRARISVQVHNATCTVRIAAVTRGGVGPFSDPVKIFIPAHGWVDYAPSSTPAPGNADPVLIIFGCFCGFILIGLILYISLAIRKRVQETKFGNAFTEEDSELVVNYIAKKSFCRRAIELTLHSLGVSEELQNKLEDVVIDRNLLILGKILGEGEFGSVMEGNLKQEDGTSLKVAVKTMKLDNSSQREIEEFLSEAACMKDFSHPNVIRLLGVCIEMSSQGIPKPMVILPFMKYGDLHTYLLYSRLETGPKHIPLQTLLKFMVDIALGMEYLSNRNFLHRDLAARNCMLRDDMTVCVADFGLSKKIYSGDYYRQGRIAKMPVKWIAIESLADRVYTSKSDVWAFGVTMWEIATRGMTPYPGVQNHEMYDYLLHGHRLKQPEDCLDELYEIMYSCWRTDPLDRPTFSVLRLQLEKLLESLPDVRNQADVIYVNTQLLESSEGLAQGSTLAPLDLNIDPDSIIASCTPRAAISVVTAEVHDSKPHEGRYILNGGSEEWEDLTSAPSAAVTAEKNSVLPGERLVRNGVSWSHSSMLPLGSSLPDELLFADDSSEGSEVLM
As to the kind of experiment: MerTk degradation in Jurkat cells (Western blot). It is filed as cell-based. The settings on record: Jurkat, 4 h, 0.001-1 μM, 4 hour-incubation at 37° C., read-out: Jurkat Max % MerTK Degradation. An outline of the steps:
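MerTK degradation was read by near-infrared Western blot, normalized to actin, in BCA-quantified lysates of Jurkat cells exposed to 0.001-1 μM compound for 4 h at 37 °C.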
Turning to `Cc1ncsc1-c1ccc(CNC(=O)[C@@H]2C[C@@H](O)CN2C(=O)[C@@H](NC(=O)C2(F)CC2)C(C)(C)C)c(OCCCCCCN2CCN(Cc3ccc(-c4cn([C@H]5CC[C@H](O)CC5)c5nc(NCCC(F)(F)F)ncc45)cc3)CC2)c1` [I-212, (2S,4R)-1-[(2S)-2-[(1-fluorocyclopropyl)formamido]-3,3-dimethylbutanoyl]-4-hydroxy-N-[[4-(4-methyl-1,3-thiazol-5-yl)-2-[(6-[4-[(4-[7-[trans-4-hydroxycyclohexyl]-2-[(3,3,3-trifluoropropyl)amino]pyrrolo[2,3-d]pyrimidin-5-yl]phenyl)methyl]piperazin-1-yl]hexyl)oxy]phenyl]methyl]pyrrolidine-2-carboxamide], the Dmax was greater than 50%.

As for `Cc1ncsc1-c1ccc(CNC(=O)[C@@H]2C[C@@H](O)CN2C(=O)[C@@H](NC(=O)C2(F)CC2)C(C)(C)C)c(OCCCCCCCN2CCN(Cc3ccc(-c4cn([C@H]5CC[C@H](O)CC5)c5nc(NCCC(F)(F)F)ncc45)cc3)CC2)c1` [I-213, (2S,4R)-1-[(2S)-2-[(1-fluorocyclopropyl)formamido]-3,3-dimethylbutanoyl]-4-hydroxy-N-[[4-(4-methyl-1,3-thiazol-5-yl)-2-[(7-[4-[(4-[7-[trans-4-hydroxycyclohexyl]-2-[(3,3,3-trifluoropropyl)amino]pyrrolo[2,3-d]pyrimidin-5-yl]phenyl)methyl]piperazin-1-yl]heptyl)oxy]phenyl]methyl]pyrrolidine-2-carboxamide], the Dmax is greater than 50%. As for `Cc1ncsc1-c1ccc(CNC(=O)[C@@H]2C[C@@H](O)CN2C(=O)[C@@H](NC(=O)C2(F)CC2)C(C)(C)C)c(OCCOCCOCCN2CCN(Cc3ccc(-c4cn([C@H]5CC[C@H](O)CC5)c5nc(NCCC(F)(F)F)ncc45)cc3)CC2)c1` [I-214, (2S,4R)-1-[(2S)-2-[(1-fluorocyclopropyl)formamido]-3,3-dimethylbutanoyl]-4-hydroxy-N-[[4-(4-methyl-1,3-thiazol-5-yl)-2-[2-[2-(2-[4-[(4-[7-[trans-4-hydroxycyclohexyl]-2-[(3,3,3-trifluoropropyl)amino]pyrrolo[2,3-d]pyrimidin-5-yl]phenyl)methyl]piperazin-1-yl]ethoxy)ethoxy]ethoxy]phenyl]methyl]pyrrolidine-2-carboxamide], the figure is greater than 50%. `C[C@@H](Nc1ncc2c(-c3ccc(CN4CCN(CCCOCCCc5ccc6c(c5)n(C)c(=O)n6C5CCC(=O)NC5=O)CC4)cc3)cn([C@H]3CC[C@H](O)CC3)c2n1)C(F)F` (some centres unmarked) [I-215]: the Dmax was greater than 50%.

For `C[C@H](Nc1ncc2c(-c3ccc(CN4CCN(CCCOCCCc5ccc6c(c5)n(C)c(=O)n6C5CCC(=O)NC5=O)CC4)cc3)cn([C@H]3CC[C@H](O)CC3)c2n1)C(F)F` (some centres unmarked) [I-216], the Dmax is greater than 50%. As for `CN1CCN(Cc2ccc(-c3ccc(CO[C@H]4CCC[C@@H]4NC(=O)c4cc(-c5cnn(CCOCCCc6ccc7c(c6)n(C)c(=O)n7C6CCC(=O)NC6=O)c5)cnc4N)cc3)cc2)CC1` (stereo partly drawn) [I-217, 2-Amino-5-[1-(2-[3-[1-(2,6-dioxopiperidin-3-yl)-3-methyl-2-oxo-1,3-benzodiazol-5-yl]propoxy]ethyl)pyrazol-4-yl]-N-[(1S,2S)-2-([4-[(4-methylpiperazin-1-yl)methyl]-[1,1-biphenyl]-4-yl]methoxy)cyclopentyl]pyridine-3-carboxamide], the figure is 20 to 50%; as for `CN1CCN(Cc2ccc(-c3ccc(CO[C@H]4CCC[C@@H]4NC(=O)c4cc(-c5cnn(CCOCCCc6cccc7c6n(C)c(=O)n7C6CCC(=O)NC6=O)c5)cnc4N)cc3)cc2)CC1` (stereo partly drawn) [I-218, 2-Amino-5-[1-(2-[3-[1-(2,6-dioxopiperidin-3-yl)-3-methyl-2-oxo-1,3-benzodiazol-4-yl]propoxy]ethyl)pyrazol-4-yl]-N-[(1S,2S)-2-([4-[(4-methylpiperazin-1-yl)methyl]-[1,1-biphenyl]-4-yl]methoxy)cyclopentyl]pyridine-3-carboxamide], less than 20%; as for `CCC[C@@H](C)Nc1ncc2c(n1)n([C@H]1CC[C@H](O)CC1)cc2[C@H]1CC[C@@H](CN2CCN(CCCO[C@H]3CCN(Cc4ccc5c(c4)n(C)c(=O)n5C4CCC(=O)NC4=O)C3)CC2)CC1` (stereo partly drawn) [I-219, 3-(3-methyl-2-oxo-5-[[(3S)-3-[3-(4-[[trans-4-[2-[(2S)-pentan-2-ylamino]-7-[trans-4-hydroxycyclohexyl]pyrrolo[2,3-d]pyrimidin-5-yl]cyclohexyl]methyl]piperazin-1-y1)propoxy]pyrrolidin-1-yl]methyl]-1,3-benzodiazol-1-yl)piperidine-2,6-dione; tris(formic acid)], greater than 50%.

For `CCC[C@H](C)Nc1ncc2c(n1)n([C@H]1CC[C@H](O)CC1)cc2[C@H]1CC[C@@H](CN2CCN(CCCO[C@H]3CCN(Cc4ccc5c(c4)n(C)c(=O)n5C4CCC(=O)NC4=O)C3)CC2)CC1` (stereo partly drawn) [I-220, 3-(3-methyl-2-oxo-5-[[(3S)-3-[3-(4-[[4-[2-[(2S)-pentan-2-ylamino]-7-[trans-4-hydroxycyclohexyl]pyrrolo[2,3-d]pyrimidin-5-yl]cyclohexyl]methyl]piperazin-1-y1)propoxy]pyrrolidin-1-yl]methyl]-1,3-benzodiazol-1-y1)piperidine-2,6-dione], the Dmax is greater than 50%.

With `CCC[C@@H](C)Nc1ncc2c(n1)n([C@H]1CC[C@H](O)CC1)cc2[C@H]1CC[C@H](CN2CCN(CCCO[C@H]3CCN(Cc4ccc5c(c4)n(C)c(=O)n5C4CCC(=O)NC4=O)C3)CC2)CC1` (stereo partly drawn) [I-221, trans-3-(3-methyl-2-oxo-5-[[(3R)-3-[3-(4-[[(1r,4r)-4-[2-[(2S)-pentan-2-ylamino]-7-[4-hydroxycyclohexyl]pyrrolo[2,3-d]pyrimidin-5-yl]cyclohexyl]methyl]piperazin-1-y1)propoxy]pyrrolidin-1-yl]methyl]-1,3-benzodiazol-1-yl)piperidine-2,6-dione], the Dmax lay within 20 to 50%. As for `CCC[C@H](C)Nc1ncc2c(n1)n([C@H]1CC[C@H](O)CC1)cc2[C@H]1CC[C@@H](CN2CCN(CCCOC3CN(Cc4ccc5c(c4)n(C)c(=O)n5C4CCC(=O)NC4=O)C3)CC2)CC1` (some centres unmarked) [I-222], the Dmax is greater than 50%.

As for `CCC[C@H](C)Nc1ncc2c(n1)n([C@H]1CC[C@H](O)CC1)cc2[C@H]1CC[C@H](CN2CCN(CCCOC3CN(Cc4ccc5c(c4)n(C)c(=O)n5C4CCC(=O)NC4=O)C3)CC2)CC1` (stereo partly drawn) [I-223, 3-[3-methyl-2-oxo-5-([3-[3-(4-[[trans-4-[2-[(2S)-pentan-2-ylamino]-7-[trans-4-hydroxycyclohexyl]pyrrolo[2,3-d]pyrimidin-5-yl]cyclohexyl]methyl]piperazin-1-y1)propoxy]azetidin-1-yl]methyl)-1,3-benzodiazol-1-yl]piperidine-2,6-dione], the Dmax lay in the range of 20 to 50%. As for `C[C@H](CC(F)(F)F)Nc1ncc2c(-c3ccc(CN4CCN(CCCOCCCc5ccc6c(c5)n(C)c(=O)n6C5CCC(=O)N(C)C5=O)CC4)cc3)cn([C@H]3CC[C@H](O)CC3)c2n1` (stereo partly drawn) [I-224, 1-methyl-3-[3-methyl-2-oxo-5-[3-(3-[4-[(4-[7-[trans-4-hydroxycyclohexy1]-2-[[(2R)-4,4,4-trifluorobutan-2-yl]amino]pyrrolo[2,3-d]pyrimidin-5-yl]phenyl)methyl]piperazin-1-yl]propoxy)propyl]-1,3-benzodiazol-1-yl]piperidine-2,6-dione], the figure is less than 20%; as for `C[C@@H](CC(F)(F)F)Nc1ncc2c(-c3ccc(CN4CCN(CCCOCCCc5ccc6c(c5)n(C)c(=O)n6C5CCC(=O)N(C)C5=O)CC4)cc3)cn([C@H]3CC[C@H](O)CC3)c2n1` (stereo partly drawn) [I-225, 1-methyl-3-[3-methyl-2-oxo-5-[3-(3-[4-[(4-[7-[trans-4-hydroxycyclohexy1]-2-[[(2S)-4,4,4-trifluorobutan-2-yl]amino]pyrrolo[2,3-d]pyrimidin-5-yl]phenyl)methyl]piperazin-1-yl]propoxy)propyl]-1,3-benzodiazol-1-yl]piperidine-2,6-dione], less than 20%; as for `N[C@H]1CCCC[C@H]1Nc1cc2nc[nH]c(=O)c2c(Nc2cccc3c2ccn3CCOCCOCCOCCOCCNc2cccc3c2C(=O)N(C2CCC(=O)NC2=O)C3=O)n1` (some centres unmarked) [I-227], greater than 50%. As for `COc1ccc(Nc2nc(Nc3cc(OCCOCCOCCOCCOCC(=O)N[C@H](C(=O)N4C[C@H](O)C[C@H]4C(=O)NCc4ccc(-c5scnc5C)cc4)C(C)(C)C)c(OC)cc3C)ncc2Cl)c(NS(C)(=O)=O)c1` [I-228], the figure is 20 to 50%; as for `Cc1ncsc1-c1ccc(CNC(=O)[C@@H]2C[C@@H](O)CN2C(=O)[C@@H](NC(=O)COCCOCCOCCOCCn2ccc3c(Nc4nc(N[C@@H]5CCCC[C@@H]5N)nnc4C(N)=O)cccc32)C(C)(C)C)cc1` [I-229], less than 20%.
